Source: patent publication US8415340B2, “Triazine kinase inhibitors” (Bristol-Myers Squibb Company, priority 2007, dated 2013)
pIC50: −log10 of the molar value.

The molecules below were run on IGF1R-Sal tumors (assay: IGF-1R Sal Tumor Model). Conditions: 3.13 mpk, orally, qd × 4 days, nude mice bearing IGF1R-Sal tumors.
Type: in vivo
Experimental: P. IGF-1R Sal Tumor Model
A salivary gland adenocarcinoma that developed spontaneously in a transgenic mouse (MCI-19) was excised and cut into fragments of about 20 mg. Tumor fragments were implanted s.c. into the ventral thoracic region of a group of six female, athymic BALB/c nu/nu mice (Harley Sprague-Dawley, Indianapolis, Ind.), using a 13-gauge trocar. Once established, the salivary gland-derived tumor line was designated IGF1R-Sal and was propagated as a tumor xenograft in nude mice. Tumors were passaged every 2 weeks, at which time the tumor reached f500 to 1,000 mm3 in size. For treatment studies, nude micebearing IGF1R-Sal tumors of about 100 mm3 in size were sorted into groups of five for treatment with vehicle (80% polyethylene glycol 400 in water) alone or the test article. Compounds were administered either on a bid schedule (oral doses 8 hours apart) or on a once a day schedule orally (qd) for 4 consecutive days. Tumors were measured at the start and end of treatment. Activity was measured as % tumor growth inhibition (% TGI). The % TGI was determined using the following formula (Ct−Tt)/(Ct−Co) where Ct is defined as the median tumor size of the control group at the end of treatment, Co is defined as the median tumor size of the control group at the start of treatment, and Tt is defined as the median tumor size of the treated group at the end of treatment.

| SMILES | % TGI (3.13 mpk) [%] |
| --- | --- |
| CO[C@H]1C[C@@H](C(=O)Nc2cnccn2)N(c2nc(Nc3cc(C4CC4)n[nH]3)nc(N3CCOCC3)n2)C1 [Example 18, (2S,4S)-1-(4-(3-Cyclopropyl-1H-pyrazol-5-ylamino)-6-morpholino-1,3,5-triazin-2-yl)-4-methoxy-N-(pyrazin-2-yl)pyrrolidine-2-carboxamide] | 96 |
| O=C(Nc1cnccn1)[C@@H]1C[C@@H](F)CN1c1nc(Nc2cc(C3CC3)n[nH]2)nc(N2CCOCC2)n1 [Example 65, (2S,4R)-1-(4-(3-Cyclopropyl-1H-pyrazol-5-ylamino)-6-morpholino-1,3,5-triazin-2-yl)-4-fluoro-N-(pyrazin-2-yl)pyrrolidine-2-carboxamide] | 80 |

Same assay, conditions: 6.25 mpk, orally, qd × 4 days, nude mice bearing IGF1R-Sal tumors

| SMILES | % TGI (6.25 mpk) [%] |
| --- | --- |
| CN1CCN(c2nc(Nc3cc(C4CC4)n[nH]3)nc(N3C[C@H](F)C[C@H]3C(=O)Nc3cnccn3)n2)CC1 [Example 68, (2S,4R)-1-(4-(3-Cyclopropyl-1H-pyrazol-5-ylamino)-6-(4-methylpiperazin-1-yl)-1,3,5-triazin-2-yl)-4-fluoro-N-(pyrazin-2-yl)pyrrolidine-2-carboxamide] | 7 |
| O=C(Nc1cnccn1)[C@@H]1C[C@H](O)CN1c1nc(Nc2cc(C3CC3)n[nH]2)nc(N2CCOCC2)n1 [Example 85, (2S,4S)-1-(4-(3-Cyclopropyl-1H-pyrazol-5-ylamino)-6-morpholino-1,3,5-triazin-2-yl)-4-hydroxy-N-(pyrazin-2-yl)pyrrolidine-2-carboxamide] | 49 |

Same assay, conditions: 50 mpk, orally, qd × 4 days, nude mice bearing IGF1R-Sal tumors

| SMILES | % TGI (50 mpk) [%] |
| --- | --- |
| CN1CCN(c2nc(Nc3cc(C4CC4)n[nH]3)nc(N3C[C@H](F)C[C@H]3C(=O)Nc3ncns3)n2)CC1 [Example 83, (2S,4R)-1-(4-(3-Cyclopropyl-1H-pyrazol-5-ylamino)-6-(4-methylpiperazin-1-yl)-1,3,5-triazin-2-yl)-4-fluoro-N-(1,2,4-thiadiazol-5-yl)pyrrolidine-2-carboxamide] | 27 |
| COCCN1CCN(c2nc(Nc3cc(C4CC4)n[nH]3)nc(N3C[C@H](F)C[C@H]3C(=O)Nc3ncns3)n2)CC1 [Example 84, (2S,4R)-1-(4-(3-Cyclopropyl-1H-pyrazol-5-ylamino)-6-(4-(2-methoxyethyl)piperazin-1-yl)-1,3,5-triazin-2-yl)-4-fluoro-N-(1,2,4-thiadiazol-5-yl)pyrrolidine-2-carboxamide] | 25 |

These molecules were tested against IGF1-receptor (Homo sapiens, UniProt P08069) (assay: IGF1-Receptor Tyrosine Kinase Assay). Conditions: in vitro kinase; ATP 25 μM; read-out: IGF1R kinase IC50.
IGF1-receptor, sequence (P08069 31-1367): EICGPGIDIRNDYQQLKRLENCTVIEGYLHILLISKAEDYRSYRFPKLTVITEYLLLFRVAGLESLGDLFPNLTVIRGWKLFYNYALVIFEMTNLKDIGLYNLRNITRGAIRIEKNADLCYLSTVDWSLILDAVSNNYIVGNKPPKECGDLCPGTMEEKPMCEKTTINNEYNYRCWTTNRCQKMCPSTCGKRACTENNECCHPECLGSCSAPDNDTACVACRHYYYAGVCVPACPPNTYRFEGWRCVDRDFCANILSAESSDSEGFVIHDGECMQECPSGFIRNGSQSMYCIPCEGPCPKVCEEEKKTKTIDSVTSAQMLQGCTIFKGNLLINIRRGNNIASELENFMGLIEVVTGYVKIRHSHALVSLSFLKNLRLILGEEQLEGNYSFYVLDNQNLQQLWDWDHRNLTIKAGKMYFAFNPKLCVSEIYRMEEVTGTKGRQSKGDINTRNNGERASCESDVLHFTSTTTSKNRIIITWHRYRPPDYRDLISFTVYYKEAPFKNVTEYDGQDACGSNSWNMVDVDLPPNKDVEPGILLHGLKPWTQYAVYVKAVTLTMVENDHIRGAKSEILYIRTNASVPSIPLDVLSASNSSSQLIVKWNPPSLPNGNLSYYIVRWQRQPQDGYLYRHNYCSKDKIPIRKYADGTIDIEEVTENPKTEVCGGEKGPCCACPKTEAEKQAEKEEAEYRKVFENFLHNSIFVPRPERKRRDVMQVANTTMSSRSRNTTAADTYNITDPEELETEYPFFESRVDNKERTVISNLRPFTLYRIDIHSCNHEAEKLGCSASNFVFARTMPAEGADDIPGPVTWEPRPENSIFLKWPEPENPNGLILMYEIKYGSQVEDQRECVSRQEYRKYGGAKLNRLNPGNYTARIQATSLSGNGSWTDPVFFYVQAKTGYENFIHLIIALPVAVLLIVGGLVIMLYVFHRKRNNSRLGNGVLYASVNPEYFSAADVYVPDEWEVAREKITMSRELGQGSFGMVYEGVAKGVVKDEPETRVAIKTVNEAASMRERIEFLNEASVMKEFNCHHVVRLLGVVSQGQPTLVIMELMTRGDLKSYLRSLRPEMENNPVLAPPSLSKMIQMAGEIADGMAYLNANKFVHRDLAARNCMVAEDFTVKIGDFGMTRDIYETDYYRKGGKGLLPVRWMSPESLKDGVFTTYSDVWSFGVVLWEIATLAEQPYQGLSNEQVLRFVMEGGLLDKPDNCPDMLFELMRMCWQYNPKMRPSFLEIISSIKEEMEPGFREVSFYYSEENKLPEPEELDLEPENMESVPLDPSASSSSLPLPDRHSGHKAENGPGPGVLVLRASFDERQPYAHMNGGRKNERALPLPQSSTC
Type: biochemical
Experimental: D. IGF1-Receptor Tyrosine Kinase Assay
The assays were performed in U-bottom 384-well plates. The final assay volume was 30 μl prepared from 15 μl additions of enzyme and substrates (fluoresceinated IGF1R substrate peptide and ATP) and test compounds in assay buffer (100 mM HEPES pH 7.4, 10 mM MnCl2, 0.015% Brij35 and 4 mM DTT). The reaction was initiated by the combination of IGF1-receptor with substrates and test compounds. The reaction was incubated at room temperature for 60 min. and terminated by adding 30 μl of 35 mM EDTA to each sample. The reaction mixture was analyzed on the Caliper LabChip 3000 by electrophoretic separation of the fluorescent substrate and phosphorylated product. Inhibition data were calculated by comparison to no enzyme control reactions for 100% inhibition and vehicle-only reactions for 0% inhibition. The final concentration of reagents in the assays is ATP, 25 μM; FL-peptide, 1.5 μM; IGF1-Receptor, 14 nM; and DMSO, 1.6%. Dose response curves were generated to determine the concentration required inhibiting 50% of kinase activity (IC50). Compounds were dissolved at 10 mM in dimethylsulfoxide (DMSO) and evaluated at eleven concentrations, each in duplicate. IC50 values were derived by non-linear regression analysis.

| SMILES | pIC50 |
| --- | --- |
| CN1CCN(c2nc(Nc3cc(C4CC4)n[nH]3)nc(N3CC(F)(F)C[C@H]3C(=O)Nc3cnccn3)n2)CC1 [Example 117, (S)-1-(4-(3-Cyclopropyl-1H-pyrazol-5-ylamino)-6-(4-methylpiperazin-1-yl)-1,3,5-triazin-2-yl)-4,4-difluoro-N-(pyrazin-2-yl)pyrrolidine-2-carboxamide] | 8.15 |
| O=C(Nc1cnccn1)[C@@H]1CC(F)(F)CN1c1nc(Nc2cc(C3CC3)n[nH]2)nc(N2CCN(CCO)CC2)n1 [Example 119, (S)-1-(4-(3-Cyclopropyl-1H-pyrazol-5-ylamino)-6-(4-(2-hydroxyethyl)piperazin-1-yl)-1,3,5-triazin-2-yl)-4,4-difluoro-N-(pyrazin-2-yl)pyrrolidine-2-carboxamide] | 8.52 |

Next, values leading:

| pIC50 | SMILES |
| --- | --- |
| 7.36 | CN1CCN(c2nc(Nc3cc(C4CC4)[nH]n3)nc(N3C[C@@H](O)C[C@@]3(C)C(=O)Nc3nccs3)n2)CC1 [Example 102, (2S,4S)-1-(4-(5-Cyclopropyl-1H-pyrazol-3-ylamino)-6-(4-methylpiperazin-1-yl)-1,3,5-triazin-2-yl)-4-hydroxy-2-methyl-N-(thiazol-2-yl)pyrrolidine-2-carboxamide] |
| 6.97 | COCCN1CCN(c2nc(Nc3cc(C4CC4)[nH]n3)nc(N3C[C@@H](O)C[C@@]3(C)C(=O)Nc3nccs3)n2)CC1 [Example 103, (2S,4S)-1-(4-(5-Cyclopropyl-1H-pyrazol-3-ylamino)-6-(4-(2-methoxyethyl)piperazin-1-yl)-1,3,5-triazin-2-yl)-4-hydroxy-2-methyl-N-(thiazol-2-yl)pyrrolidine-2-carboxamide] |
| 7.37 | CN1CC2CC1CN2c1nc(Nc2cc(C3CC3)[nH]n2)nc(N2C[C@@H](O)C[C@@]2(C)C(=O)Nc2nccs2)n1 (stereo partly drawn) [Example 104, (2S,4S)-1-(4-(5-Cyclopropyl-1H-pyrazol-3-ylamino)-6-(5-methyl-2,5-diazabicyclo[2.2.1]heptan-2-yl)-1,3,5-triazin-2-yl)-4-hydroxy-2-methyl-N-(thiazol-2-yl)pyrrolidine-2-carboxamide] |
| 7.05 | Cc1cnc(NC(=O)[C@]2(C)C[C@H](O)CN2c2nc(Nc3cc(C4CC4)[nH]n3)nc(N3CCOCC3)n2)s1 [Example 105, (2S,4S)-1-(4-(5-Cyclopropyl-1H-pyrazol-3-ylamino)-6-morpholino-1,3,5-triazin-2-yl)-4-hydroxy-2-methyl-N-(5-methylthiazol-2-yl)pyrrolidine-2-carboxamide] |
| 8.15 | CO[C@H]1C[C@@H](C(=O)N[C@@H]2CCCN(C)C2)N(c2nc(Nc3cc(C4CC4)[nH]n3)nc(N3CCOCC3)n2)C1 [Example 113, (2S,4S)-1-(4-(5-Cyclopropyl-1H-pyrazol-3-ylamino)-6-morpholino-1,3,5-triazin-2-yl)-4-methoxy-N—((R)-1-methylpiperidin-3-yl)pyrrolidine-2-carboxamide] |
| 8.15 | CN1CCN(c2nc(Nc3cc(C4CC4)n[nH]3)nc(N3[C@H](C(=O)Nc4cnccn4)C[C@@H]4C[C@@H]43)n2)CC1 [Example 122, (1S,3S,5S)-2-(4-(3-Cyclopropyl-1H-pyrazol-5-ylamino)-6-(4-methylpiperazin-1-yl)-1,3,5-triazin-2-yl)-N-(pyrazin-2-yl)-2-azabicyclo[3.1.0]hexane-3-carboxamide] |
